Patent US20220233472A1, “VETERINARY BROMHEXINE HYDROCHLORIDE SOLUBLE POWDER, PREPARATION METHOD AND USE THEREOF” (Qingdao Agricultural University, priority 2021, published 2022)
Where a name gives a salt, the structure may show the parent alone.

Assay: Pharmacokinetic tests of bromhexine hydrochloride soluble powder in chickens
Format: in vivo
Settings: oral, soluble powder at 50, 150 and 250 mg/kg·bw
Protocol: Pharmacokinetic tests of bromhexine hydrochloride soluble powder in chickens were carried out based on three administration dosages of 50 mg/kg·bw, 150 mg/kg·bw and 250 mg/kg·bw.

Structure (SMILES): CN(Cc1cc(Br)cc(Br)c1N)C1CCCCC1 [bromhexine, Bromhexine hydrochloride]
- pharmacokinetic characteristic: linear pharmacokinetic characteristic
